Data set [1] deals with T1, MRP2 (Homo sapiens, UniProt Q92887). As to the kind of experiment: [14C] erythromycin uptake in MDCK-MRP2 cells. The format is cell-based.
For data set [2], the target named is T2, P-gp (human MDR1) (Homo sapiens, UniProt P08183). The settings on record: MDCKII-MDR1 monolayers.
For data set [3], the target named is T2, P-gp (human MDR1). Description: in vitro. The settings on record: MDCK-MDR1, pH 7.4.
Data set [4] relates to MRP2. Description: Bidirectional [14C] erythromycin transport across MDCK-MRP2 cell monolayers. The format is cell-based, human. The settings on record: human, pH 7.4.
The target of data set [5] is T1, MRP2. Described as above. The format is cell-based.
The next data set concerns many bacterial species. The note with it: cited from earlier work.
In another data set the test system is P-gp. The note with it: rat endothelial cell line (RBMEC); ref Li et al. 2009; cited from earlier work.
In data set [6] the test system is MDCKII-MDR1, MDCK-MRP2 and MDCK-BCRP cells. As to the kind of experiment: ATP activity assay in MDCK cell lines. The format is cell-based, dog. The note with it: all MDCK cell lines, 30 min treatment, 0.75, 1.25, 2.5 and 5mM.
Data set [7] addresses T2, P-gp (human MDR1). Description: [14C] erythromycin uptake in MDCKII-MDR1 cells. The format is cell-based.
The target of a further data set is T3, BCRP (Homo sapiens, UniProt Q9UNQ0).
T3 sequence (Q9UNQ0 1-655): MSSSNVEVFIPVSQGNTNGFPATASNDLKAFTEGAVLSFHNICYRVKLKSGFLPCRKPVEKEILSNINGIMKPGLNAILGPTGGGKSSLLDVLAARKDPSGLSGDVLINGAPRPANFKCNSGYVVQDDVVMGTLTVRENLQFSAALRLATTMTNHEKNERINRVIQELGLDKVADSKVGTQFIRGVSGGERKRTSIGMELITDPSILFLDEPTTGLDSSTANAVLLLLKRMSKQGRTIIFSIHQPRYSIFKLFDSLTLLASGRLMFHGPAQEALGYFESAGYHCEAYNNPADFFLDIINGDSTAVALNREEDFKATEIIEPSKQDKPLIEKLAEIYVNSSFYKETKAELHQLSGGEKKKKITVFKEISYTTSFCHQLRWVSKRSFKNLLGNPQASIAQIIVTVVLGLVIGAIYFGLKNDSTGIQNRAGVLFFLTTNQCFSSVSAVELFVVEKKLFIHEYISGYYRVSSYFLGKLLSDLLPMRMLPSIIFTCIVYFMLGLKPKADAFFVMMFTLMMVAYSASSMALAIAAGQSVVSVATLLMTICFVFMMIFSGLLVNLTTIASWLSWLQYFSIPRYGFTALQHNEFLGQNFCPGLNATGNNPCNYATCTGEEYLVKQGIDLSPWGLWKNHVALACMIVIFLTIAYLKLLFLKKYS
Description: Accumulation of Hoechst 33342 in MDCK-BCRP cells. The format is cell-based. The settings on record: gatifloxacin 0.5, 1, 2.5, 5 and 10 mM, Hoechst 33342 5μM.

In brackets after ≈: the same amount, converted by molar mass. Where only a bound is given, the exact number is not on record here.

The IC50 is the concentration needed to halve the response being measured. A high value points to weaker potency in that assay. As a reminder, the Ki is the dissociation constant of the complex between target and ligand, obtained from inhibition or displacement. A lower Ki goes with higher affinity. One may read the efflux ratio as a quotient of directional permeabilities that is used to spot active efflux.

T1 sequence (Q92887 whole entry): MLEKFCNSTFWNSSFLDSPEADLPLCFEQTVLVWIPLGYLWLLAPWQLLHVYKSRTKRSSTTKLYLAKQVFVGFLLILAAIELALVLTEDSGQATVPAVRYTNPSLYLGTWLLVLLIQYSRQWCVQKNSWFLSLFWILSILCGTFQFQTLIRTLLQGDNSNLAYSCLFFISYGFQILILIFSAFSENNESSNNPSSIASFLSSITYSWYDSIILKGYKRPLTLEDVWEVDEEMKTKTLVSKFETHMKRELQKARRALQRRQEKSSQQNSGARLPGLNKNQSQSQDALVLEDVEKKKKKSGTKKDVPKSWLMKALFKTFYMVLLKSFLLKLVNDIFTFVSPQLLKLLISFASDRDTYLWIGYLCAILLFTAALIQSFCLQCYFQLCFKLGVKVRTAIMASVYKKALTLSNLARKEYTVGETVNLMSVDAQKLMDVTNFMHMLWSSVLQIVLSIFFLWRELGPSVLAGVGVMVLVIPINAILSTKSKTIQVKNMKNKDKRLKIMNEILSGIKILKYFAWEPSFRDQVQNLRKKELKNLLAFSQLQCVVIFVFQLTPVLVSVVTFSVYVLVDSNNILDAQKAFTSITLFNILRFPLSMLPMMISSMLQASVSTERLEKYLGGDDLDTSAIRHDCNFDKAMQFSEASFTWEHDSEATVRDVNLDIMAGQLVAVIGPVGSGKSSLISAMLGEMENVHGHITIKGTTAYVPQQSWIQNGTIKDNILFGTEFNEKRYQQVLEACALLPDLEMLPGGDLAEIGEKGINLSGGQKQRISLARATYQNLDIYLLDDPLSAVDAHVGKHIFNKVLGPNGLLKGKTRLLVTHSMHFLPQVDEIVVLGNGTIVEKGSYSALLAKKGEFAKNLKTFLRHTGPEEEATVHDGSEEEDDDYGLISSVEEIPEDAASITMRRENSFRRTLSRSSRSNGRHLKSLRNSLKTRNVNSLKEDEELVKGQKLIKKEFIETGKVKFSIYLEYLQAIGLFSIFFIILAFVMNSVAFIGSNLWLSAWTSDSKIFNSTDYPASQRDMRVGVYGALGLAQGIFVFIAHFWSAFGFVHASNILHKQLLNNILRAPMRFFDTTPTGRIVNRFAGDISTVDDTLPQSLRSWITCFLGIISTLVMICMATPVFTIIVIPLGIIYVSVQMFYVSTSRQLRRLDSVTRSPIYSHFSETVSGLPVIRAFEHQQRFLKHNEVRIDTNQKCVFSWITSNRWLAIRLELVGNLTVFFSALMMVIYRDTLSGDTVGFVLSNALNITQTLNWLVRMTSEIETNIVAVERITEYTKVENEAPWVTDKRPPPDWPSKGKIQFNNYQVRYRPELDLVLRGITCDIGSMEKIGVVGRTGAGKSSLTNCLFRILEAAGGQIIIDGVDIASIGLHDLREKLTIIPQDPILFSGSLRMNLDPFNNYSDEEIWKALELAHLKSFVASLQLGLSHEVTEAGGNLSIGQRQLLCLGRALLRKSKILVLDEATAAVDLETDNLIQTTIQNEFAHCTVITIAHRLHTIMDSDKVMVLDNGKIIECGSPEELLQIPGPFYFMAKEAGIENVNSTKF
T2 sequence (P08183 whole entry): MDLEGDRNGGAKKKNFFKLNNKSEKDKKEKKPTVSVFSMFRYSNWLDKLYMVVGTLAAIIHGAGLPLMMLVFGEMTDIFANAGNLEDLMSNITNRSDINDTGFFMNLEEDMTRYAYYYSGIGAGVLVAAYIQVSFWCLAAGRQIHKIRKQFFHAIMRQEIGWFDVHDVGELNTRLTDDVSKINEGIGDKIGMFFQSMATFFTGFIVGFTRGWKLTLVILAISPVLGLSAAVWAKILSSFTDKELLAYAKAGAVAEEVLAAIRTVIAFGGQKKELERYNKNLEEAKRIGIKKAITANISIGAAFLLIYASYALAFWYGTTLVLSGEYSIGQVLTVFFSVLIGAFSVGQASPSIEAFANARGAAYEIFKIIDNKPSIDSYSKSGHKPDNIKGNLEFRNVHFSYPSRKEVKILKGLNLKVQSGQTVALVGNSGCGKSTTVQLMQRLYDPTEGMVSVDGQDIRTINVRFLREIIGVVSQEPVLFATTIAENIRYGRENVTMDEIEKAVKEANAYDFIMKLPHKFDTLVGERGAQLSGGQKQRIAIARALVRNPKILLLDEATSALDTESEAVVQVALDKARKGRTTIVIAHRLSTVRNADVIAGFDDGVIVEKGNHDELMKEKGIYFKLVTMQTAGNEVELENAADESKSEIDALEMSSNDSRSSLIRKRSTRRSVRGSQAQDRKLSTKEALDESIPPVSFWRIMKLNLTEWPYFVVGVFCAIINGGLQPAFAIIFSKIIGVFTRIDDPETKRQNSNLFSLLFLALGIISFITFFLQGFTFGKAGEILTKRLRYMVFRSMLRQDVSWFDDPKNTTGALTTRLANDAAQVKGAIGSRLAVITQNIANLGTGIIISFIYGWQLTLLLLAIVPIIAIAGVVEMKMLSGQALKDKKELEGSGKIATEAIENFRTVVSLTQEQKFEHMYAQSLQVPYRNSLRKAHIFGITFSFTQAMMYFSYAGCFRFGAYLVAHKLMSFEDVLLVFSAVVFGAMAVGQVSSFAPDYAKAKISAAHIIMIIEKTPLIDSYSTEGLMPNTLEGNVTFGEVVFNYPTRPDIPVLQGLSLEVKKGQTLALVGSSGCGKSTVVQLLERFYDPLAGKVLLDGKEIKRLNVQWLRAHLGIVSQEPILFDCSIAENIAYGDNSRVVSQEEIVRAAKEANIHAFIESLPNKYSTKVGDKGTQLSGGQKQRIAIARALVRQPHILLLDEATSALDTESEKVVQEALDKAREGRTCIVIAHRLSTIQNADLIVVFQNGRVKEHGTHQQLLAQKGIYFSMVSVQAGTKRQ

On MRP2 [1], `CN(C)C(=O)CCSC(SCCC(=O)O)c1cccc(/C=C/c2ccc3ccc(Cl)cc3n2)c1` (stereo not drawn) [MK571] showed a half-inhibitory concentration (IC50) of 188 ± 28.2 µM and a Ki of 175 ± 18.2 µM. The “Uptake of [14C] erythromycin higher by” value at MRP2 [1] (MDCK-MRP2 cells, 100 μM MK571, 30 min) stood at 177%.
Turning to `CC[C@H]1OC(=O)[C@H](C)[C@@H](O[C@H]2C[C@@](C)(OC)[C@@H](O)[C@H](C)O2)[C@H](C)[C@@H](O[C@@H]2O[C@H](C)C[C@H](N(C)C)[C@H]2O)[C@](C)(O)C[C@@H](C)C(=O)[C@H](C)[C@@H](O)[C@]1(C)O` [[^14C] erythromycin, erythromycin], at P-gp (human MDR1) [2] (erythromycin alone), the “Papp of [14C] erythromycin in B-A direction relative to AP-BL direction” value is recorded as “more than fivefold higher”. In addition, the efflux ratio at 3 h on P-gp (human MDR1) [3] was 7.2; in the data set with MRP2 [4], more than 7; at MRP2 [5] (human, pH 7.4), 5.3.
`COc1c(N2CCNC(C)C2)c(F)cc2c(=O)c(C(=O)O)cn(C3CC3)c12` (stereo not drawn) [gatifloxacin]: the “Effect on efflux ratio of [14C] erythromycin” value is “progressively decrease and approach unity” on P-gp (human MDR1) [2] (increasing concentrations of gatifloxacin); “continuously became lower and approached unity” at MRP2 [5] (MDCK-MRP2 monolayers, increasing concentrations of gatifloxacin). Further, the “Minimum inhibitory concentration (MIC)” value with many bacterial species (against many bacterial species, introduction, no reference given) is 0.1 µg/mL (≈ 0.266 µM). In the data set with many bacterial species (ref Ba et al. 2006), the “Activity relative to the other quinolones” value is “two- to fourfold more active”. Also, the “Involvement of P-gp in the translocation of gatifloxacin” value with P-gp was “did not find any significant involvement”. The “ATP activity of treated cells compared to vehicle control” value in data set [6] is given as “No significant difference”. For the same compound, the IC50 at MRP2 [1] was 5230 ± 390 µM; against P-gp (human MDR1) [7], 359 ± 90.1 µM. Also, the Ki on MRP2 [1] was 5370 ± 218 µM; on P-gp (human MDR1) [7], 385 ± 88.6 µM. Also, the “Effect on Hoechst 33342 uptake” value on BCRP is “not found to be significantly different”.

The values above are taken from publication PMC2902587 (International journal of pharmaceutics, 2010).
